Laboratory results taken from US20160232293A1, “DRUG SENSITIVITY BIOMARKERS AND METHODS OF IDENTIFYING AND USING DRUG SENSITIVITY BIOMARKERS” (SANFORD-BURNHAM MEDICAL RESEARCH INSTITUTE, priority 2013, published 2016).

How the values were obtained:
[1] = TCGA survival analysis of patients treated with CCLE drugs, grouped by mutations in resistance-associated PFRs; type: in vivo, human; settings: for outcome of treated patients with mutations in PFRs associated with resistance vs mutations in other regions of the same proteins or no mutations: TCGA patients treated with Topoisomerase inhibitors Irinotecan and Topotecan (n=188), pooled, p<0.01; for prediction of patient outcome by mutation status of the whole proteins that contain the associated PFRs: TCGA patients treated with Topoisomerase inhibitors, whole-protein level
From the text: Both clinical and mutation data for the 3,205 tumors described in the pan-cancer analysis of the TCGA were downloaded. Data from patients that had not been treated with any of the drugs included in the CCLE was then filtered out. Since most drugs included in the CCLE are still in under clinical research, there were only enough patients to analyze 2 different drugs: paclitaxel (n=778) and irinotecan (n=58). Each of these subsets of patients have then been classified in 3 groups: those that have a mutation in a PFR that, according to the analysis, increases resistance to the drug used to treat them; those with mutations in other regions of the same genes; and those with no mutations in these genes.
As a result very few patients in the TCGA dataset carry mutations in the former type of regions and were treated with the matching drug. The survival analysis was performed using the “Survival” package for R.

human cancer cell lines = assay: e-Drug analysis: CCLE drug activity (activity area) in cell lines with missense mutations in a protein functional region (PFR) or whole protein versus cell lines without; type: cell-based
From the text: The CCLE (Cancer Cell Line Encyclopedia; website broadinstitute.org/ccle; Barretina et al., Nature 483:603-607 (2012)) dataset, which includes the mutation profiles of 1,668 genes in 906 human cancer cell lines and drug activity data for 24 different anticancer compounds, was used in the present study. The analysis was focused on missense mutations, as truncating mutations can sometimes be misleading when performing the analysis in terms of functional regions. For example, when analyzing a protein that contains two different domains, if a truncating mutation happens in the first domain, it is not obvious whether the functional consequences of the mutation are caused by the fact that the first domain is altered or that the second domain is missing. […] From the original 42,603 genomic-point mutations in 1,668 genes, 156,817 protein missense mutations were obtained in 9,311 proteins.
CCLE contains data on the drug activity of 24 different compounds in 479 cell lines from 8-point dose-response curves. […] In our analysis only the activity area was used because, according to the CCLE, it captures simultaneously both variables of drug activity: its efficacy and its potency.
For the present study, protein functional regions were defined as domains or intrinsically disordered regions. […] To identify protein domains, annotated Pfam domains were retrieved from ENSEMBL for each protein isoform. A set of 1,300 potential domains identified by AIDA (ab initio domain assembly; Xu et al., Nucleic Acids Research 12:W308-W313 (2014) (Web Server issue); Internet site ffas.burnham.org/AIDA/), an algorithm based on remote homology, were also included. Foldindex (Prilusky et al., Bioinformatics 21(16):3435-8 (2005)) was used to predict intrinsically disordered regions for each protein. Those regions with a predicted unfolded score below −0.1 were included in the present study.
The different mutations of each cell line were mapped to these protein features, giving a total of 30,798 altered regions in 906 cell lines. These regions are divided into 19,918 Pfam domains and 10,880 intrinsically disordered regions. Note that the features can overlap, as the predictions were performed independently and there is no reason why, for example, an intrinsically unfolded region cannot overlap with (or even be located within) a Pfam domain. Note also that these numbers refer to PFRs in all known protein isoforms according to ENSEMBL v72.
The e-Drug analysis protocol looks for PFRs that, when mutated, correlate with drug activity of the different drugs. […] A Wilcoxon test was then performed comparing the drug activity of each compound in the two groups and kept those with a p-value below 0.01. Finally, for those gene regions associated to a certain drug, the activity of the cell lines mutated in the region of interest was compared to the activity of cell lines mutated in other regions of the gene. […] In this case, since the number of cell lines in both groups is lower and fewer tests were performed, a significance threshold of 0.05 instead of 0.01 was established. True positives were considered those PFR that passed both thresholds and that are not in proteins that show an association (p<0.01) with the same drug at the whole-protein level. Note that the analysis is performed independently for each PFR.
To overcome these limitations and decrease the number of false positives among the associations three different thresholds were required for an association to be considered positive (see

With CCc1c2c(nc3ccc(OC(=O)N4CCC(N5CCCCC5)CC4)cc13)-c1cc3c(c(=O)n1C2)COC(=O)[C@]3(O)CC [Irinotecan] the “outcome of treated patients with mutations in PFRs associated with resistance vs mutations in other regions of the same proteins or no mutations” value [1] was “worse outcomes” and the “prediction of patient outcome by mutation status of the whole proteins that contain the associated PFRs” value ([1]; p>0.9) was “cannot predict the outcome”.
In the case of CS(=O)(=O)CCNCc1ccc(-c2ccc3ncnc(Nc4ccc(OCc5cccc(F)c5)c(Cl)c4)c3c2)o1 [Lapatinib], the “drug activity associated with mutations in the connector domain (Pf05188) of MSH6” value (human cancer cell lines; PFR level, missense mutations, MSH6 Pf05188) is reported as “higher”.
For CC(=O)O[C@H]1C(=O)[C@@]2(C)[C@H]([C@H](OC(=O)c3ccccc3)[C@]3(O)C[C@H](OC(=O)[C@H](O)[C@@H](NC(=O)c4ccccc4)c4ccccc4)C(C)=C1C3(C)C)[C@]1(OC(C)=O)CO[C@@H]1C[C@@H]2O [Paclitaxel], the “outcome of treated patients with mutations in PFRs associated with increased resistance” value ([1]; TCGA patients treated with paclitaxel (n=778), p>0.9) was “no differences”.
With CC[C@@]1(O)C(=O)OCc2c1cc1n(c2=O)Cc2cc3c(CN(C)C)c(O)ccc3nc2-1 [Topotecan] the “outcome of treated patients with mutations in PFRs associated with resistance vs mutations in other regions of the same proteins or no mutations” value [1] was “worse outcomes” and the “prediction of patient outcome by mutation status of the whole proteins that contain the associated PFRs” value ([1]; p>0.9) was “cannot predict the outcome”.
With C#Cc1cccc(Nc2ncnc3cc(OCCOC)c(OCCOC)cc23)c1 [Erlotinib] the “association of MSH6 mutations with the drug at protein level” value (human cancer cell lines; protein level analysis, MSH6 whole protein) was “potential association”.
With C[C@@H](Oc1cc(-c2cnn(C3CCNCC3)c2)cnc1N)c1c(Cl)ccc(F)c1Cl [PF2341066] the “sensitivity of cell lines with mutations in the ERBB3 receptor domain” value (human cancer cell lines; PFR level analysis, N-terminal EGF receptor domain of ERBB3) was “resistant”, the “behavior of cell lines with mutations in any other PFR of ERBB3” value (human cancer cell lines; PFR level analysis, other PFRs of ERBB3 such as the kinase domain) was “do not show any specific behavior” and the “activity of the drug in cell lines with mutations in ERBB3” value (human cancer cell lines; protein level analysis, ERBB3 whole protein) was “do not show any bias”.
With Cn1c(Nc2ccc(C(F)(F)F)cc2)nc2cc(Oc3ccnc(-c4ncc(C(F)(F)F)[nH]4)c3)ccc21 [RAF265] the “drug activity associated with mutations in the ATPase domain (Pf00488) of MSH6” value (human cancer cell lines; PFR level, missense mutations, MSH6 Pf00488) was “higher”.
